Assay results taken from ChEMBL document CHEMBL3351500, “Fragment-based identification and optimization of a class of potent pyrrolo[2,1-f][1,2,4]triazine MAP4K4 inhibitors” (Bioorg Med Chem Lett, 2014).

Columns and labels:
Format in all cases: ADME, organism-based
[1] = Clearance in mouse plasma at 1 mg/kg, iv; design: dose 1 mg/kg, route intravenous
[2] = Oral bioavailability in mouse plasma at 25 mg/kg
[3] = Volume of distribution at steady state in mouse plasma at 1 mg/kg, iv; design: dose 1 mg/kg, route intravenous; settings: read-out: Vdss

clearance [1] [mL/min/kg]	bioavailability [2] [%]	Vd [3] [L/kg]	SMILES
22	16	2	CC(C)(O)Cn1cc(-c2ccc(-c3cc4c(Nc5ccncc5)ncnn4c3)cc2)cn1
78	–	15	CN1CCN(c2ccc(-c3cc4c(Nc5ccncc5)ncnn4c3)cn2)CC1
25	6	1	CS(=O)(=O)c1ccc(-c2cc3c(Nc4ccncc4)ncnn3c2)cc1
